Experiments:
human Nurr1 = human Nurr1 (Homo sapiens, UniProt P43354); conditions: for activation of Gal4-Nurr1 (hybrid assay): all compounds tested at 10 μM, n = 3; for EC50(Nurr1): Gal4 hybrid reporter gene assay, mean ± S.E.M., n ≥ 3, inactive = at 10 μM
[1] = target: full-length human Nurr1 (NBRE) (Homo sapiens, UniProt P43354); conditions: all compounds tested at 10 μM, n = 3
NOR1 (NR4A3) = target: T1, NOR1 (NR4A3) (Homo sapiens, UniProt Q92570); assay: cell-based
T1 sequence (Q92570 394-623 limits assumed): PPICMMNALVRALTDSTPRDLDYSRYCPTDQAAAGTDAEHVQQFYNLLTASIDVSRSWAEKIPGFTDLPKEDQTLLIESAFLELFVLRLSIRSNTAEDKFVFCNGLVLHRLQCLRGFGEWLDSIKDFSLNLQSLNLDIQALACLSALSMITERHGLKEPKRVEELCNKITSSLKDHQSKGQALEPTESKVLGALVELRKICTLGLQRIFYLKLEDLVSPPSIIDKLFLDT

full-length human Nurr1 (NBRE), sequence (P43354 whole entry): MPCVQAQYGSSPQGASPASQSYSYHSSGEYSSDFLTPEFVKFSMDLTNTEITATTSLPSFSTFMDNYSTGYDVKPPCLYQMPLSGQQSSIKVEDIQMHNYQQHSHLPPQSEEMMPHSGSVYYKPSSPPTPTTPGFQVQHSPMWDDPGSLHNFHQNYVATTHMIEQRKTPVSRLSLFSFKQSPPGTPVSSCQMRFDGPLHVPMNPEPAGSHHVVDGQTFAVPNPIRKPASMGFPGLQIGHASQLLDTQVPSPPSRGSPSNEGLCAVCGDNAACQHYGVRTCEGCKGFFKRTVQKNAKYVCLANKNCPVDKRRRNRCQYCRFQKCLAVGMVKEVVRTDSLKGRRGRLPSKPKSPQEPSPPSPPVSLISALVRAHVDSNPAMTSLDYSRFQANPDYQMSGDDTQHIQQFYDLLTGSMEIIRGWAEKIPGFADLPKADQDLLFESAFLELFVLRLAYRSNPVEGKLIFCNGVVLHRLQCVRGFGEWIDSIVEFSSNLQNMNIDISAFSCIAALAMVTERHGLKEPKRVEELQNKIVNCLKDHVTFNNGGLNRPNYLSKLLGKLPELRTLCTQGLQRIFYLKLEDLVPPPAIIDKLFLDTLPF
human Nurr1, sequence (P43354 360-595 limits assumed): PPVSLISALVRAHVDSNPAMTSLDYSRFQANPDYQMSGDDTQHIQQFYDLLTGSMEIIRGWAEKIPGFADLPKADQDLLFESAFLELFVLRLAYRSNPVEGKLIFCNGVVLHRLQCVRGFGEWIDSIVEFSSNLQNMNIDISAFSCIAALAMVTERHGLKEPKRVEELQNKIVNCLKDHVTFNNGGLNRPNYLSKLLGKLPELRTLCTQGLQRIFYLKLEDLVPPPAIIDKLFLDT

Structure (SMILES) | activation of Gal4-Nurr1 (hybrid assay) (human Nurr1) | activation of full-length Nurr1 (NBRE) [1] | EC50(Nurr1) (human Nurr1) | EC50 (NOR1 (NR4A3)) [nM]
Cc1ccccc1-c1ccc(-c2cc(C(=O)O)c3c(c2)nnn3C)cc1 [AG-636] | No other tested DHODH inhibitor caused activation | No other tested DHODH inhibitor caused activation |  | 
O=C(Nc1c(F)c(F)c(-c2ccccc2)c(F)c1F)c1c(=O)[nH]n2ccccc12 [MEDS433] | No other tested DHODH inhibitor caused activation | No other tested DHODH inhibitor caused activation |  | 
[2H]C([2H])([2H])Oc1cccc(C23CCC(NC(=O)C4=C(C(=O)O)CCC4)(CC2)CC3)c1 [compound 8] |  |  | inactive (10 μM) | 
[2H]C([2H])([2H])Oc1cccc(-c2ccc(N(C)C(=O)C3=C(C(=O)O)CCC3)c(F)c2)c1 [compound 9] |  |  | inactive (10 μM) | 
C#CCOc1cccc(-c2ccc(NC(=O)C3=C(C(=O)O)CCC3)c(F)c2)c1 [compound 29, 2-[(3-Fluoro-3′-prop-2-yn-1-yloxy[1,1′-biphenyl]-4-yl)carbamoyl]cyclopent-1-ene-1-carboxylic acid] |  |  |  | 1300 ± 300
COc1cccc(-c2cc(F)c(Nc3ncccc3C(=O)O)c(F)c2)c1 [farudodstat] | No other tested DHODH inhibitor caused activation | No other tested DHODH inhibitor caused activation |  | 
